In patent US9572760B2, “Uses of compounds and mixtures from Antrodia cinnamomea mycelia” (Simpson Biotech Co., Ltd., priority 2013, dated 2017):

How the values were obtained:
HSC = HSC proliferation by BrdU assay; assay type: cell-based; conditions: 24-80 μM; for HSC proliferation (BrdU assay): 24 h, 48 h and 72 h
Description: The Cell Proliferation ELISA, BrdU kit was designed to quantitate cell proliferation bases on the measurement of BrdU incorporation during DNA synthesis in proliferation cells. Briefly, cells (1×10^4 cells/well) were seeded in 100 μl medium in a 96-well plate (Nunc, Denmark) and cultured for 24 h to allow the cells to attach and then treated with three different concentrations ([…]) of either Compound A, B, C and D for 24 h, 48 h and 72 h and the plates were incubated in 37° C. After incubation, the culture medium was labeled with 10 μl/well BrdU (Roche Diagnostic Inc.), and the cells were reincubated for addition 16 h at 37° C. Labeling medium was removed using 10 min centrifuge at 200×g and blow dried. Cells were fixed using 200 μl FixDenat solution and incubated for 30 min at room temperature. Removing the FixDenat solution, 100 μl of anti-BrdU-POD was added and incubated for 90 min at room temperature. After the incubation period, microplates were washed three times with PBS buffer and 100 μl substrate solution was added and incubated for 30 min. Stop solution was added (25 μl of 1 M H2SO4) and absorbance of the samples was measured using ELISA reader at 450 nm.

cirrhotic animals [1] = assay: Redox status (Glutathione level, GSH:GSSG ratio) in cirrhotic animals; assay type: in vivo, Wistar rats; conditions: compound B 7 mg/kg, compound C 14 mg/kg
Description: A commercially available kit (# K264-100, BioVision) was used to measure glutathione (GSH), and oxidized glutathione (GSSG). […] The assay was conducted with several modifications to the manufacturer's directions. Briefly, cellular pellet (˜10 mg) was homogenized immediately, and take 60 μl of each sample to a prechilled tube containing Perchloric Acid and centrifuged at 13,000×g for 2 min, collect supernatant and stored at −80° C. until analyzed. The assay was conducted as described by the manufacturer. Briefly, cold 3N KOH was added to each sample mixed, and centrifuged at 13,000×g for 10 min. Ten microliters of each sample and the appropriate buffer and 90 μl of Assay Buffer to detect GSH and 10 μl of glutathione reductase were mixed to detect total glutathione and 10 μl of GSH Quencher to detect GSSG and incubated at room temperature for 40 min and the absorbance of each sample was read at 340/420 nm for 3 min. The protein concentration for each sample was determined via a DC protein concentration assay (Bio-Rad). Signals from each sample were normalized to the corresponding protein content of that sample.

cirrhotic animals [2] = assay: Biochemical analysis of serum (liver damage parameters) in DEN cirrhotic animal model; assay type: in vivo, Wistar rats; conditions: compound B 7 mg/kg, compound C 14 mg/kg, ACM 320 mg/kg/day, gastric tube, 5th to 11th week, vs control group
Description: Samples of 1 ml blood were gathered from the retro-orbital plexus of each […] and immediately centrifuged at 1300×g at 4° C., plasma was kept at −20° C. for liver function tests. Alanine aminotranferease (ALT), aspartate aminotransferase (AST), total bilirubin and Gamma-glutamyl transpeptidase (γ-GT) levels were determined using commercial enzymatic kits with a colorimetric analyzer (Dri-Chem 3000, Fuji Photo Film Co, Tokyo, Japan).

collagen I and III = assay: Collagen I and collagen III quantification (ELISA) in rabbit ear scar; assay type: in vivo, New Zealand white rabbits
Description: The rabbit ear model of hypertrophic scarring was established. In brief, 12 New Zealand white rabbits, weighing 2.5 to 3.0 kg, were prepared for wounding under sterile conditions. Four 1 cm full thickness circular wounds were created down to the cartilage on the ventral side of each ear using a 1 cm punch biopsy. The perichondrial membrane was then dissected off the cartilage using a surgical blade. The test agents including compound B, C and ACM ethanol extract were applied to the wounds of the experimental group ([…] to each wound) every day in concentrations of 1% w/v for 14 days, while the control group received equal amounts of 1% w/v saline.
The quantification of collagen I and III used an ELISA Kit (R & D Systems Inc., Minneapolis, Minn., USA) according to the operation manual.

| SMILES | potency of effect on HSC proliferation and apoptosis compared to other compounds (HSC) | HSC proliferation (BrdU assay) (HSC) | Redox status: GSH:GSSG ratio (cirrhotic animals [1]) | Redox status: Glutathione level (cirrhotic animals [1]) | serum Alanine aminotranferease (ALT) level (cirrhotic animals [2]) | serum Gamma-glutamyl transpeptidase (γ-GT) level (cirrhotic animals [2]) | serum aspartate aminotransferase (AST) level (cirrhotic animals [2]) | serum total bilirubin level (cirrhotic animals [2]) | collagen III density (collagen I and III; day 7, 1% w/v topical) | collagen I density (collagen I and III; day 14, 1% w/v topical) | collagen III density (collagen I and III; day 14, 1% w/v topical) |
| --- | --- | --- | --- | --- | --- | --- | --- | --- | --- | --- | --- |
| CC(C)=CCOc1ccc(C2=C(CC(C)C)C(=O)NC2=O)cc1 [Compound B, 3-isobutyl-4-[4-(3-methyl-2-butenyloxy)phenyl]-1H-pyrrol-2,5-dione] | most potent effect | markedly proliferation inhibition | significantly improved | significantly improved | significantly reduced | significantly reduced | significantly reduced | significantly reduced | insignificantly decreased | significantly decreased | significantly reduced |
| CC(C)=CCOc1ccc(C2=C(CC(C)C)C(=O)N(O)C2=O)cc1 [Compound C, 3-isobutyl-4-[4-(3-methyl-2-butenyloxy)phenyl]-1H-pyrrol-1-ol-2,5-dione] |  | markedly proliferation inhibition | significantly improved | significantly improved | significantly reduced | significantly reduced | significantly reduced | significantly reduced | insignificantly decreased | significantly decreased | significantly reduced |
